Patent US8029831B2, “Formulations containing thymoquinone for urinary health” (Bionexus, Ltd., priority 2008, dated 2011)
In brackets after ≈: the same amount, converted by molar mass. Read-outs that look alike come from different tables or passages of the source.

Assays:
[1] = 1500 to 3000 mg/day in humans, 19 subjects, reduced from 7.5; Jarrar 1996; cited from earlier work
[2] = test system: iNOS biosynthesis of NO in C2C12 myocytes; test: Inhibition of LTI (LPS/TNFα/IFγ)-stimulated iNOS biosynthesis of NO in C2C12 myocytes; type: cell-based, murine; conditions: Mus musculus
From the text: The Model—The C2C12 murine myocyte model was used in this Example. This model was selected to serve as the surrogate for muscle cells of the bladder that are exposed to the inflammatory stimuli of the invading bacteria, modeled by lipopolysaccharide (LPS), as well as the counter-inflammatory responses of the bladder infiltrating macrophage, modeled by interferon gamma (IFγ) and tumor necrosis factor alpha (TNFα). […] A significant increase in baseline NO production in cats with feline interstitial cystitis compared with that in healthy cats has been found in smooth muscle and mucosal strips.
(§1) Cell culture and treatment—Mouse C2C12 myoblasts (American Type Culture Collection, Manassas, Va.) were maintained in Dulbecco's modified Eagle's medium (DMEM) supplemented with 10% fetal calf serum (FCS), 50 units/ml penicillin and 50 μg/ml streptomycin. As cells reached confluence, the medium was switched to the differentiation medium containing DMEM and 2% horse serum. Medium was changed every other day. After 4 additional days, the differentiated C2C12 cells had fused into myotubes, which were then treated in serum-free DMEM with either vehicle alone (0.1% DMSO), or 50, 10, 5, or 1 μg thymoquinone/mL for 1 hour and then stimulated with a cytokine mixture containing 1 μg LPS/mL, 50 ng TNFα/mL and 100 U IFγ/mL (LTI) for 20 hours. At the end of the treatment period, media were sampled for determination of NO.
Nitric oxide determination—NBD methylhydrazine (NBDM, N-methyl-4-hydrazino-7-nitrobenzofurazan) was used to detect N-methyl-4-amino-7-nitrobenzofuazan, the fluorescent product of the NBDM reagent with nitrite (Buldt A, Karst U. Determination of nitrite in waters by microplate fluorescence spectroscopy and HPLC with fluorescence detection. Anal Chem. Aug. 1, 1999; 71(15):3003-3007). In a separate, black-walled, 96-well, microtiter plate, a 7 μL aliquot of a 4.8×10^−4 mol NBDM/L solution was added to 200 μL of the supernatant media followed by the addition of 15 μL of concentrated phosphoric acid. After a reaction time of 30 minutes at ambient temperature, the fluorescence was read with 485 nm excitation filter and a 530 nm emission filter in a Packard Fluorocount spectrofluorometer (Model#BF10000, Meridan, Conn.). Fluoresence was linear in the range of 3.59×10^−7 to 1.44×10^−5 mol nitrite/L. The standard deviation was 3.5 percent for 1.44×10^−6 mol nitrite/L. Experiments were performed a minimum of three times with eight replicates per dose, capturing the median inhibitory concentration (IC50) when possible.
Calculations—The median inhibitory concentrations (IC50) and 95% confidence interval were calculated using CalcuSyn (BIOSOFT, Ferguson, Mo.). This statistical package performs multiple drug dose-effect calculations using the Median Effect methods described by Chou and Talalay [Chou T C, Talalay P. Quantitative analysis of dose-effect relationships: the combined effects of multiple drugs or enzyme inhibitors. Adv Enzyme Regul. 1984; 22:27-55].
The Model—The C2C12 murine myocyte model as described in Example 1 was used.
as §1, with “units/mL” for “units/ml”, “μg/mL of the thymoquinone test formulation” for “μg thymoquinone/mL”, “IFγ/mL” for “IFγ/mL (LTI)”, “NO. […]” for “NO.”

[3] = test system: NO production in LPS-stimulated macrophages; conditions: single stimulating agent, El-Mahmoudy 2002; cited from earlier work
[4] = pure compounds from Sigma, LTI-stimulated C2C12 myocytes as in Example 1, read-out: median inhibitory concentration

CSCC[C@H](N)C(=O)O [Methionine]
mean pH values of the urine after treatment [1]: 5.5

CC=Cc1ccc(OC)cc1 [anethole]
IC50 [2, 4]: ≥ 10 µg/mL

Cc1ccc(C(C)C)cc1O [carvacrol]
IC50 ([2]; C2C12, read-out: median inhibitory concentration): ≥ 10 µg/mL

Cc1ccc(C(C)C)cc1 [cymene]
IC50 [2, 4]: ≥ 10 µg/mL

Cc1ccc(C(C)C)c(O)c1 [thymol]
IC50 [2, 4]: ≥ 10 µg/mL

CC1=CC(=O)C(C(C)C)=CC1=O [thymoquinone]
IC50 ([2]; C2C12 myotubes, 1 h pre-treatment, then LPS/TNFα/IFγ mixture for 20 h, 95% confidence interval 1.1 to 2.3 μg/mL, read-out: median inhibitory concentration of iNOS-mediated NO production): 1.6 µg/mL (≈ 9.74 µM) | IC50 ([2]; LTI-stimulated C2C12 myocytes, adjusted for thymoquinone content, brackets = 95% confidence interval, read-out: Adjusted iNOS (IC50)): 1.6 µg/mL (≈ 9.74 µM) | IC50 inhibiting NO production [3]: 1.4 to 2.8 µg/mL
